# Reference: PubChem BioAssay AID328 (DTP/NCI, 2004)
# Several values for one entry are separate records, joined by “and”; a condition that tells them apart may be missing. Identical values can stand only once. Toxic doses and inconclusive results are not listed.
# Tested on: BDF1 mice, P388 leukemia ip, median survival T/C
# Experiment: NCI In Vivo Anticancer Drug Screen. Data for tumor model P388 Leukemia (intraperitoneal) in B6D2F1 (BDF1) mice
# Details: endpoint: median survival time, higher = longer survival
# Summary of the method: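 Each value expresses how treatment altered survival: treated-mouse outcome over vehicle-mouse outcome, both groups bearing the transplanted tumour.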
# [1] = dose: 50.0 mg/kg/injection, schedule: Q01DX009 (ip), vehicle: Klucel (hydroxypropylcellulose) (HPC)
# [2] = dose: 100.0 mg/kg/injection, schedule: Q01DX009 (ip), vehicle: Klucel (hydroxypropylcellulose) (HPC)
# [3] = dose: 200.0 mg/kg/injection, schedule: Q01DX009 (ip), vehicle: Klucel (hydroxypropylcellulose) (HPC)
# [4] = dose: 50.0 mg/kg/injection, schedule: Q01DX001 (ip), vehicle: saline
# [5] = dose: 100.0 mg/kg/injection, schedule: Q01DX001 (ip), vehicle: saline
# [6] = dose: 12.5 mg/kg/injection, schedule: Q01DX009 (ip), vehicle: water
# [7] = dose: 50.0 mg/kg/injection, schedule: Q04DX003 (ip), vehicle: water
# [8] = dose: 50.0 mg/kg/injection, schedule: Q01DX009 (ip), vehicle: water
# [9] = dose: 100.0 mg/kg/injection, schedule: Q01DX009 (ip), vehicle: water
# [10] = dose: 100.0 mg/kg/injection, schedule: Q04DX003 (ip), vehicle: water
# [11] = dose: 200.0 mg/kg/injection, schedule: Q04DX003 (ip), vehicle: water
# [12] = dose: 400.0 mg/kg/injection, schedule: Q04DX003 (ip), vehicle: water
compound,measurement,setting,value
CCCCCCC#CC(=O)O,T/C,"dose: 50.0 mg/kg/injection, schedule: Q01DX009 (ip), vehicle: saline with Tween-80",100 % of control
same,T/C,"dose: 50.0 mg/kg/injection, schedule: Q01DX009 (sc), vehicle: olive oil, sesame oil, peanut oil",96 % of control
same,T/C,"dose: 100.0 mg/kg/injection, schedule: Q01DX009 (ip), vehicle: saline with Tween-80",98 % of control
same,T/C,"dose: 100.0 mg/kg/injection, schedule: Q01DX009 (sc), vehicle: olive oil, sesame oil, peanut oil",96 % of control
same,T/C,"dose: 100.0 mg/kg/injection, schedule: Q04DX003 (sc), vehicle: olive oil, sesame oil, peanut oil",100 % of control
same,T/C,"dose: 200.0 mg/kg/injection, schedule: Q01DX009 (ip), vehicle: saline with Tween-80",116 % of control
same,T/C,"dose: 200.0 mg/kg/injection, schedule: Q01DX009 (sc), vehicle: olive oil, sesame oil, peanut oil",92 % of control
same,T/C,"dose: 200.0 mg/kg/injection, schedule: Q04DX003 (sc), vehicle: olive oil, sesame oil, peanut oil",96 % of control
COc1cc(N(C)C)c(OC)cc1C=O,T/C,[1],100 % of control
same,T/C,[2],90 % of control
same,T/C,"dose: 100.0 mg/kg/injection, schedule: Q04DX003 (ip), vehicle: Klucel (hydroxypropylcellulose) (HPC)",95 % of control
same,T/C,[3],109 % of control
same,T/C,"dose: 200.0 mg/kg/injection, schedule: Q04DX003 (ip), vehicle: Klucel (hydroxypropylcellulose) (HPC)",95 % of control
same,T/C,"dose: 400.0 mg/kg/injection, schedule: Q04DX003 (ip), vehicle: Klucel (hydroxypropylcellulose) (HPC)",100 % of control
O=[N+]([O-])c1ccc(N(CCO)CCO)c2c1no[n+]2[O-],T/C,"dose: 7.5 mg/kg/injection, schedule: Q01DX009 (ip), vehicle: saline with Tween-80",112 % of control
same,T/C,"dose: 15.0 mg/kg/injection, schedule: Q01DX009 (ip), vehicle: saline with Tween-80",112 % of control
same,T/C,"dose: 30.0 mg/kg/injection, schedule: Q01DX009 (ip), vehicle: saline with Tween-80",113 % of control
same,T/C,"dose: 32.0 mg/kg/injection, schedule: Q04DX003 (ip), vehicle: saline with Tween-80",160 % of control
same,T/C,"dose: 64.0 mg/kg/injection, schedule: Q04DX003 (ip), vehicle: saline with Tween-80",121 % of control
CCOC(=O)C(C)(C)CN(CC(C)(C)C(=O)OCC)C(C)(C)C,T/C,[4],110 % of control
same,T/C,[5],120 % of control
COc1cc(OC)c2c[n+](C)c3c4cc(OC)c(OC)cc4ccc3c2c1,T/C,"dose: 6.25 mg/kg/injection, schedule: Q01DX009 (ip), vehicle: Klucel (hydroxypropylcellulose) (HPC)",154 % of control
same,T/C,"dose: 12.5 mg/kg/injection, schedule: Q01DX009 (ip), vehicle: Klucel (hydroxypropylcellulose) (HPC)",154 % of control and 169 % of control
same,T/C,"dose: 25.0 mg/kg/injection, schedule: Q01DX009 (ip), vehicle: Klucel (hydroxypropylcellulose) (HPC)",170 % of control and 172 % of control
same,T/C,[1],155 % of control and 180 % of control
CCOC(=O)C(c1cccc(OC)c1)C1(C(=O)OCC)CC2(CCC1=O)OCCO2 (stereo not given),T/C,"dose: 50.0 mg/kg/injection, schedule: Q01DX001 (ip), vehicle: saline sonified",104 % of control
same,T/C,"dose: 100.0 mg/kg/injection, schedule: Q01DX001 (ip), vehicle: saline sonified",100 % of control
same,T/C,"dose: 200.0 mg/kg/injection, schedule: Q01DX001 (ip), vehicle: saline sonified",100 % of control
CC(=O)N/N=C(/C)C(=O)O,T/C,[6],93 % of control and 102 % of control and 114 % of control
same,T/C,"dose: 12.5 mg/kg/injection, schedule: Q04DX003 (ip), vehicle: water",95 % of control
same,T/C,"dose: 25.0 mg/kg/injection, schedule: Q04DX003 (ip), vehicle: water",100 % of control
same,T/C,[7],100 % of control
CC(C)C1CCC2=C(CCC3C(C)(C(=O)O)CCCC23C)C1 (stereo not given),T/C,"dose: 100.0 mg/kg/injection, schedule: Q01DX009 (ip), vehicle: saline",109 % of control
same,T/C,"dose: 200.0 mg/kg/injection, schedule: Q01DX009 (ip), vehicle: saline",100 % of control
same,T/C,"dose: 400.0 mg/kg/injection, schedule: Q01DX009 (ip), vehicle: saline",100 % of control
Cc1nc2[nH]c(=O)ccc2c(C)c1N,T/C,"dose: 100.0 mg/kg/injection, schedule: Q04DX002 (ip), vehicle: saline with Tween-80",92 % of control
CCOc1nc(SCC)ncc1C,T/C,[8],109 % of control
same,T/C,[9],101 % of control
same,T/C,[10],99 % of control
same,T/C,"dose: 200.0 mg/kg/injection, schedule: Q01DX009 (ip), vehicle: water",108 % of control
same,T/C,[11],103 % of control
same,T/C,[12],107 % of control
CCC(C#N)C1=CCCCCC1 (stereo not given),T/C,"dose: 25.0 mg/kg/injection, schedule: Q04DX003 (ip), vehicle: saline with Tween-80",109 % of control
same,T/C,"dose: 50.0 mg/kg/injection, schedule: Q04DX003 (ip), vehicle: saline with Tween-80",121 % of control
same,T/C,"dose: 100.0 mg/kg/injection, schedule: Q04DX003 (ip), vehicle: saline with Tween-80",118 % of control
C/C=C1\C[N+]2(C)CCc3c([nH]c4ccccc34)C2CC1Cc1nccc2c1[nH]c1ccccc12 (stereo not given),T/C,"dose: 1.0 mg/kg/injection, schedule: Q04DX003 (ip), vehicle: saline",107 % of control
same,T/C,"dose: 2.0 mg/kg/injection, schedule: Q04DX003 (ip), vehicle: saline",98 % of control
same,T/C,"dose: 4.0 mg/kg/injection, schedule: Q04DX003 (ip), vehicle: saline",98 % of control
same,T/C,"dose: 6.0 mg/kg/injection, schedule: Q04DX003 (ip), vehicle: saline",102 % of control
same,T/C,"dose: 12.0 mg/kg/injection, schedule: Q04DX003 (ip), vehicle: saline",113 % of control
same,T/C,"dose: 24.0 mg/kg/injection, schedule: Q04DX003 (ip), vehicle: saline",118 % of control
same,T/C,"dose: 48.0 mg/kg/injection, schedule: Q04DX003 (ip), vehicle: saline",110 % of control
CC[S+](CC)CC,T/C,"dose: 12.5 mg/kg/injection, schedule: Q04DX003 (ip), vehicle: saline",109 % of control
same,T/C,"dose: 25.0 mg/kg/injection, schedule: Q01DX001 (ip), vehicle: saline",100 % of control
same,T/C,"dose: 25.0 mg/kg/injection, schedule: Q04DX003 (ip), vehicle: saline",109 % of control
same,T/C,[4],100 % of control
same,T/C,"dose: 50.0 mg/kg/injection, schedule: Q04DX003 (ip), vehicle: saline",109 % of control
same,T/C,[5],100 % of control
same,T/C,"dose: 100.0 mg/kg/injection, schedule: Q04DX003 (ip), vehicle: saline",100 % of control
CC1(C)C2CCC(CN)C1C2 (stereo not given),T/C,"dose: 100.0 mg/kg/injection, schedule: Q01DX009 (ip), vehicle: other",106 % of control
Cc1cc(=O)c2cc(N(C)C)ccc2[nH]1,T/C,"dose: 0.78 mg/kg/injection, schedule: Q01DX009 (ip), vehicle: water",110 % of control
same,T/C,"dose: 1.56 mg/kg/injection, schedule: Q01DX009 (ip), vehicle: water",100 % of control
same,T/C,"dose: 3.12 mg/kg/injection, schedule: Q01DX009 (ip), vehicle: water",101 % of control
same,T/C,"dose: 6.25 mg/kg/injection, schedule: Q01DX009 (ip), vehicle: water",93 % of control
same,T/C,[6],94 % of control and 116 % of control
same,T/C,"dose: 25.0 mg/kg/injection, schedule: Q01DX009 (ip), vehicle: water",114 % of control
same,T/C,[8],91 % of control
same,T/C,[7],95 % of control
same,T/C,[9],107 % of control
same,T/C,[10],103 % of control
same,T/C,[11],103 % of control
same,T/C,"dose: 400.0 mg/kg/injection, schedule: Q01DX009 (ip), vehicle: water",86 % of control
same,T/C,[12],96 % of control
COc1cc2c(c(OC)c1OC)CC/C(=C\O)C2=O,T/C,[1],112 % of control
same,T/C,[2],114 % of control
same,T/C,[3],106 % of control
CCCCN(C)N=Nc1ccc(CCC(=O)OCC)cc1,T/C,"dose: 78.0 mg/kg/injection, schedule: Q04DX003 (ip), vehicle: saline with Tween-80",100 % of control
same,T/C,"dose: 118.0 mg/kg/injection, schedule: Q04DX003 (ip), vehicle: saline with Tween-80",118 % of control
same,T/C,"dose: 177.0 mg/kg/injection, schedule: Q04DX003 (ip), vehicle: saline with Tween-80",104 % of control
same,T/C,"dose: 200.0 mg/kg/injection, schedule: Q04DX003 (ip), vehicle: saline with Tween-80",118 % of control
same,T/C,"dose: 400.0 mg/kg/injection, schedule: Q04DX003 (ip), vehicle: saline with Tween-80",150 % of control and 168 % of control
same,T/C,"dose: 600.0 mg/kg/injection, schedule: Q04DX003 (ip), vehicle: saline with Tween-80",184 % of control
CCCCCCCCCCCCCCCCS(=O)(=O)NN,T/C,"dose: 12.5 mg/kg/injection, schedule: Q01DX009 (ip), vehicle: other",91 % of control
same,T/C,"dose: 25.0 mg/kg/injection, schedule: Q01DX009 (ip), vehicle: other",96 % of control
same,T/C,"dose: 50.0 mg/kg/injection, schedule: Q01DX009 (ip), vehicle: other",102 % of control
